Laboratory results: patent US5624902A, “Peptide inhibitors of calmodulin” (Torrey Pines Institute for Molecular Studies, priority 1995, dated 1997)
Square brackets hold non-standard residues; d marks the D form. Peptide text beside a SMILES is read from it.

Target: calmodulin (Homo sapiens, UniProt P0DP23)
Assay: calcium-dependent phosphodiesterase assay (inhibition of calmodulin activity)
Assay type: biochemical
Settings: for inhibition at 50 µM: inhibition of calmodulin activation of phosphodiesterase at 50 μM peptide, PDE without calmodulin = 100%, Calmo = 0%; for IC50: concentration inhibiting 50% of calmodulin activity, assayed at 75 μM, 50 μM and 12.5 μM

| Compound | inhibition at 50 µM [%] | IC50 [µM] |
| --- | --- | --- |
| CC(=O)N[C@H](CC(C)C)C(=O)N[C@H](CCC(N)=O)C(=O)N[C@H](CCCNC(=N)N)C(=O)N[C@H](Cc1c[nH]cn1)C(=O)N[C@H](Cc1c[nH]cn1)C(=O)N[C@H](CCCNC(=N)N)C(N)=O [Ac-(D)Leu-(D)Gln-(D)Arg-(D)His-(D)His-(D)Arg-NH2] (Ac-[dL][dQ][dR][dH][dH][dR]-NH2) | 63.2 | – |
| CC(=O)N[C@H](CC(C)C)C(=O)N[C@H](CCC(N)=O)C(=O)N[C@H](CCCNC(=N)N)C(=O)N[C@H](Cc1c[nH]cn1)C(=O)N[C@H](Cc1c[nH]cn1)C(=O)N[C@H](Cc1c[nH]c2ccccc12)C(N)=O [Ac-(D)Leu-(D)Gln-(D)Arg-(D)His-(D)His-(D)Trp-NH2] (Ac-[dL][dQ][dR][dH][dH][dW]-NH2) | 79 | – |
| CC(=O)N[C@H](CC(C)C)C(=O)N[C@H](CCC(N)=O)C(=O)N[C@H](CCCNC(=N)N)C(=O)N[C@H](Cc1c[nH]cn1)C(=O)N[C@H](CC(C)C)C(=O)N[C@H](Cc1c[nH]c2ccccc12)C(N)=O [Ac-(D)Leu-(D)Gln-(D)Arg-(D)His-(D)Leu-(D)Trp-NH2] (Ac-[dL][dQ][dR][dH][dL][dW]-NH2) | 44.7 | – |
| CC[C@@H](C)[C@@H](NC(=O)[C@@H](CCCNC(=N)N)NC(=O)[C@@H](CCC(N)=O)NC(=O)[C@@H](CC(C)C)NC(C)=O)C(=O)N[C@H](Cc1c[nH]cn1)C(=O)N[C@H](Cc1c[nH]c2ccccc12)C(N)=O [Ac-(D)Leu-(D)Gln-(D)Arg-(D)Ile-(D)His-(D)Trp-NH2] (Ac-[dL][dQ][dR][dI][dH][dW]-NH2) | 34.2 | 40 |
| CC[C@@H](C)[C@@H](NC(=O)[C@@H](CCCNC(=N)N)NC(=O)[C@@H](CCC(N)=O)NC(=O)[C@@H](CC(C)C)NC(C)=O)C(=O)N[C@H](CC(C)C)C(=O)N[C@H](Cc1c[nH]c2ccccc12)C(N)=O [Ac-(D)Leu-(D)Gln-(D)Arg-(D)Ile-(D)Leu-(D)Trp-NH2] (Ac-[dL][dQ][dR][dI][dL][dW]-NH2) | 44.5 | > 50 |
| CC[C@@H](C)[C@@H](NC(=O)[C@@H](CCC(N)=O)NC(=O)[C@@H](CC(C)C)NC(C)=O)C(=O)N[C@H](Cc1c[nH]cn1)C(=O)N[C@H](Cc1c[nH]cn1)C(=O)N[C@H](CCCNC(=N)N)C(N)=O [Ac-(D)Leu-(D)Gln-(D)Ile-(D)His-(D)His-(D)Arg-NH2] (Ac-[dL][dQ][dI][dH][dH][dR]-NH2) | 43.4 | – |
| CC[C@@H](C)[C@@H](NC(=O)[C@@H](CCC(N)=O)NC(=O)[C@@H](CC(C)C)NC(C)=O)C(=O)N[C@H](Cc1c[nH]cn1)C(=O)N[C@H](Cc1c[nH]cn1)C(=O)N[C@H](Cc1c[nH]c2ccccc12)C(N)=O [Ac-(D)Leu-(D)Gln-(D)Ile-(D)His-(D)His-(D)Trp-NH2] (Ac-[dL][dQ][dI][dH][dH][dW]-NH2) | 60.5 | 76 |

Other lines, results leading:

| inhibition at 50 µM [%] | IC50 [µM] | Compound |
| --- | --- | --- |
| 64.5 | – | CC(=O)N[C@H](CC(C)C)C(=O)N[C@H](CCC(N)=O)C(=O)N[C@H](CCCNC(=N)N)C(=O)N[C@H](Cc1c[nH]cn1)C(=O)N[C@H](CC(C)C)C(=O)N[C@H](CCCNC(=N)N)C(N)=O [Ac-(D)Leu-(D)Gln-(D)Arg-(D)His-(D)Leu-(D)Arg-NH2] (Ac-[dL][dQ][dR][dH][dL][dR]-NH2) |
| 21.1 | > 50 | CC[C@@H](C)[C@@H](NC(=O)[C@@H](CCCNC(=N)N)NC(=O)[C@@H](CCC(N)=O)NC(=O)[C@@H](CC(C)C)NC(C)=O)C(=O)N[C@H](Cc1c[nH]cn1)C(=O)N[C@H](CCCNC(=N)N)C(N)=O [Ac-(D)Leu-(D)Gln-(D)Arg-(D)Ile-(D)His-(D)Arg-NH2] (Ac-[dL][dQ][dR][dI][dH][dR]-NH2) |
| -13.2 | > 50 | CC[C@@H](C)[C@@H](NC(=O)[C@@H](CCCNC(=N)N)NC(=O)[C@@H](CCC(N)=O)NC(=O)[C@@H](CC(C)C)NC(C)=O)C(=O)N[C@H](CC(C)C)C(=O)N[C@H](CCCNC(=N)N)C(N)=O [Ac-(D)Leu-(D)Gln-(D)Arg-(D)Ile-(D)Leu-(D)Arg-NH2] (Ac-[dL][dQ][dR][dI][dL][dR]-NH2) |
